Laboratory results taken from PMC12122562, “Phase 1 studies of the indenoisoquinolines LMP776 and LMP744 in patients with solid tumors and lymphomas” (Cancer Chemotherapy and Pharmacology, 2025).
Entries after “also recorded” stand apart in the source; their conditions may differ.

Test system: patients with advanced, refractory solid tumors or lymphomas
Experiment: Phase 1 trial of LMP776 (NCT01051635): safety, MTD, adverse events (CTCAE v4.0)
Assay type: in vivo
Description: The primary objectives of each study included establishing safety, tolerability, MTD, and recommended phase 2 dose (RP2D) of LMP776 and LMP744 as single agents. The LMP744 study included evaluation of tumor pharmacodynamics as an exploratory objective. Both trials were opened at the National Cancer Institute’s (NCI) Developmental Therapeutics Clinic, and the LMP744 trial was also opened at the University of Pittsburgh Hillman Cancer Center. Both trials used an accelerated dose escalation designs (Simon design 4 for LMP776, Simon design 3 for LMP744) to determine the MTD [30]. Dose levels are listed in Supplementary Table 1. Once the MTD was determined, additional patients were enrolled at that DL in an expansion cohort to evaluate pharmacodynamic changes as described below. LMP776 and LMP744 were administered intravenously through a central line via a 1-h infusion on days 1–5 (QDx5) in 28-day cycles. Both agents were supplied by the NCI Division of Cancer Treatment and Diagnosis (DCTD). The studies were approved by the NIH Institutional Review Board and conducted in accordance with the Declaration of Helsinki.
Patients were enrolled in either NCT01051635 evaluating LMP776 or NCT03030417 evaluating LMP744; these trials were conducted sequentially. Both trials required that patients be ≥ 18 years of age with solid tumors or lymphomas refractory to other treatments. Patients were required to have adequate performance status (Eastern Cooperative Oncology Group [ECOG] performance status ≤ 2), bone marrow function, and organ function as described in the Supplementary Methods. Patients in expansion phases at the MTD were required to have disease amenable to biopsy collection and be willing to undergo research biopsies. All patients provided written informed consent.
Tumor responses were evaluated by serial CT scans according to RECIST v1.1 criteria. CT scans were performed every other cycle during the first year, then every 3 cycles after the first year. […] Criteria for all versions can be found at https://ctep.cancer.gov/protocolDevelopment/electronic_applications/ctc.htm. Any patient who received a dose of either agent was considered eligible for toxicity evaluation.

[1] = all DLs, highest grade per patient
[2] = grade 2, DL1-DL2 (n = 8; suppl. DL2, n=7)

COc1cc2c3c(n(CCCn4ccnc4)c(=O)c2cc1OC)-c1cc2c(cc1C3=O)OCO2 [LMP776]
Grade 3 non-hematologic toxicities (DL8 (16 mg/m^2/day), one patient each): hypokalemia, hyponatremia, and hypophosphatemia | Maximum tolerated dose (MTD) (IV QDx5, 28-day cycles (DL7)): 12 mg/m^2/day | Anemia, grade ≥ 2, prevalence (across all DLs): 50% | Lymphopenia, grade ≥ 2, prevalence (across all DLs): 38% | Thrombocytopenia, grade ≥ 2, prevalence (across all DLs): 18% | Alkaline phosphatase increased, grade ≥ 2, Total (%) (all DLs): 1 (3) | Aspartate aminotransferase increased, grade ≥ 2, Total (%) (all DLs): 2 (6) | Dehydration, grade ≥ 2, Total (%) (all DLs): 2 (6) | Diarrhea, grade ≥ 2, Total (%) (all DLs): 1 (3) | Dysgeusia, grade ≥ 2, Total (%) (all DLs): 2 (6) | Fatigue, grade ≥ 2, Total (%) (all DLs): 3 (9) | Hypercalcemia, grade ≥ 2, Total (%) (all DLs): 1 (3) | Hypoalbuminemia, grade ≥ 2, Total (%) (all DLs): 3 (9) | Hypoglycemia, grade ≥ 2, Total (%) (all DLs): 1 (3) | Hypokalemia, grade ≥ 2, Total (%) (all DLs): 1 (3) | Hypomagnesemia, grade ≥ 2, Total (%) (all DLs): 1 (3) | Hyponatremia, grade ≥ 2, Total (%) (all DLs): 2 (6) | Hypothyroidism, grade ≥ 2, Total (%) (all DLs): 1 (3) | Mucositis - oral, grade ≥ 2, Total (%) (all DLs): 1 (3) | Nausea, grade ≥ 2, Total (%) (all DLs): 2 (6) | Vomiting, grade ≥ 2, Total (%) (all DLs): 1 (3) | White blood cell decreased, grade ≥ 2, Total (%) (all DLs): 3 (9) | Anemia, grade ≥ 2, Total (%) [1]: 17 (50) | Hypophosphatemia, grade ≥ 2, Total (%) [1]: 4 (12) | Lymphopenia (Lymphocyte count decreased), grade ≥ 2, Total (%) [1]: 13 (38) | Neutropenia, grade ≥ 2, Total (%) [1]: 5 (15) | Thrombocytopenia (Platelet count decreased), grade ≥ 2, Total (%) [1]: 6 (18) | Patients requiring a dose reduction (enrolled at DL8): One | Anemia, patients [2]: 5 | Hypophosphatemia, patients [2]: 1 | Lymphopenia (Lymphocyte count decreased), patients [2]: 2 | Hypoalbuminemia, patients (grade 2, DL2): 1 | Lymphopenia (Lymphocyte count decreased), patients (grade 2, DL3-DL4): 1 | Anemia, patients (grade 2, DL3-DL4 (n = 6)): 2 | Dehydration, patients (grade 2, DL5-DL6): 1 | Diarrhea, patients (grade 2, DL5-DL6): 1 | Fatigue, patients (grade 2, DL5-DL6): 1 | Neutropenia, patients (grade 2, DL5-DL6): 1 | Anemia, patients (grade 2, DL5-DL6 (n = 6)): 3 | Aspartate aminotransferase increased, patients (grade 2, DL7): 1 | Hypophosphatemia, patients (grade 2, DL7): 1 | Anemia, patients (grade 2, DL7 (n = 7)): 1 | Aspartate aminotransferase increased, patients (grade 2, DL8): 1 | Dehydration, patients (grade 2, DL8): 1 | Dysgeusia, patients (grade 2, DL8): 2 | Fatigue, patients (grade 2, DL8): 2 | Hypoalbuminemia, patients (grade 2, DL8): 2 | Hypomagnesemia, patients (grade 2, DL8): 1 | Hypophosphatemia, patients (grade 2, DL8): 1 | Hypothyroidism, patients (grade 2, DL8): 1 | Nausea, patients (grade 2, DL8): 2 | Neutropenia, patients (grade 2, DL8): 1 | Thrombocytopenia (Platelet count decreased), patients (grade 2, DL8): 1 | Vomiting, patients (grade 2, DL8): 1 | White blood cell decreased, patients (grade 2, DL8): 1 | Anemia, patients (grade 2, all DLs (n=34)): 11 | Aspartate aminotransferase increased, patients (grade 2, all DLs (n=34)): 2 | Dehydration, patients (grade 2, all DLs (n=34)): 2 | Diarrhea, patients (grade 2, all DLs (n=34)): 1 | Dysgeusia, patients (grade 2, all DLs (n=34)): 2 | Fatigue, patients (grade 2, all DLs (n=34)): 3 | Hypercalcemia, patients (grade 2, all DLs (n=34)): 1 | Hypoalbuminemia, patients (grade 2, all DLs (n=34)): 3 | Hypomagnesemia, patients (grade 2, all DLs (n=34)): 1 | Hyponatremia, patients (grade 2, all DLs (n=34)): 2 | Hypophosphatemia, patients (grade 2, all DLs (n=34)): 3 | Hypothyroidism, patients (grade 2, all DLs (n=34)): 1 | Lymphocyte count decreased, patients (grade 2, all DLs (n=34)): 3 | Nausea, patients (grade 2, all DLs (n=34)): 2 | Neutropenia, patients (grade 2, all DLs (n=34)): 2 | Platelet count decreased, patients (grade 2, all DLs (n=34)): 1 | Vomiting, patients (grade 2, all DLs (n=34)): 1 | White blood cell count decreased, patients (grade 2, all DLs (n=34)): 1 | Hypoglycemia, patients (grade 3, DL2): 1 | Lymphopenia (Lymphocyte count decreased), patients (grade 3, DL3-DL4): 2 | Anemia, patients (grade 3, DL3-DL4 (n = 6)): 1 | Lymphopenia (Lymphocyte count decreased), patients (grade 3, DL5-DL6): 1 | Alkaline phosphatase increased, patients (grade 3, DL7): 1 | Hyponatremia, patients (grade 3, DL7): 1 | Lymphopenia (Lymphocyte count decreased), patients (grade 3, DL7): 2 | Mucositis - oral, patients (grade 3, DL7): 1 | Thrombocytopenia (Platelet count decreased), patients (grade 3, DL7): 1 | Anemia, patients (grade 3, DL7 (n = 7)): 1 | Hypokalemia, patients (grade 3, DL8): 1 | Hyponatremia, patients (grade 3, DL8): 1 | Hypophosphatemia, patients (grade 3, DL8): 1 | Lymphopenia (Lymphocyte count decreased), patients (grade 3, DL8): 3 | Neutropenia, patients (grade 3, DL8): 2 | Thrombocytopenia (Platelet count decreased), patients (grade 3, DL8): 3 | White blood cell decreased, patients (grade 3, DL8): 1 | Anemia, patients (grade 3, DL8 (n = 7)): 4 | Alkaline phosphatase increased, patients (grade 3, all DLs (n=34)): 1 | Anemia, patients (grade 3, all DLs (n=34)): 6 | Hypoglycemia, patients (grade 3, all DLs (n=34)): 1 | Hypokalemia, patients (grade 3, all DLs (n=34)): 1 | Lymphocyte count decreased, patients (grade 3, all DLs (n=34)): 8 | Mucositis - oral, patients (grade 3, all DLs (n=34)): 1 | Neutropenia, patients (grade 3, all DLs (n=34)): 2 | Platelet count decreased, patients (grade 3, all DLs (n=34)): 3 | White blood cell count decreased, patients (grade 3, all DLs (n=34)): 1 | Hypercalcemia, patients (grade 4, DL2): 1 | Lymphopenia (Lymphocyte count decreased), patients (grade 4, DL8): 2 | Neutropenia, patients (grade 4, DL8): 1 | Thrombocytopenia (Platelet count decreased), patients (grade 4, DL8): 1 | White blood cell decreased, patients (grade 4, DL8): 1 | Lymphocyte count decreased, patients (grade 4, all DLs (n=34)): 2 | Neutropenia, patients (grade 4, all DLs (n=34)): 1 | Platelet count decreased, patients (grade 4, all DLs (n=34)): 1 | White blood cell count decreased, patients (grade 4, all DLs (n=34)): 1 | Dose-limiting toxicities (DLTs) (in vivo): hypercalcemia, anemia, and hyponatremia; also recorded: Hypercalcemia and hyponatremia were dose-limiting | Nausea, prevalence (in vivo): 6%
